Measured values published in publication PMC10319141, “Imidazoquinolines with improved pharmacokinetic properties induce a high IFNα to TNFα ratio in vitro and in vivo” (Frontiers in Immunology, 2023).
Where two headings read alike, the source gives them in different places.

Assays:
[1] = molecular target: T1, human TLR7 (Homo sapiens, UniProt Q9NYK1); test: HEK-Blue hTLR7 SEAP reporter assay; type: cell-based; details: for TLR7 activity rel. to assay max: average maximal SEAP secretion relative to maximum secretion observed in the assay
T1 construct: host or cells: HEK blue hTLR7 reporter cells
T1 sequence (Q9NYK1 27-1049): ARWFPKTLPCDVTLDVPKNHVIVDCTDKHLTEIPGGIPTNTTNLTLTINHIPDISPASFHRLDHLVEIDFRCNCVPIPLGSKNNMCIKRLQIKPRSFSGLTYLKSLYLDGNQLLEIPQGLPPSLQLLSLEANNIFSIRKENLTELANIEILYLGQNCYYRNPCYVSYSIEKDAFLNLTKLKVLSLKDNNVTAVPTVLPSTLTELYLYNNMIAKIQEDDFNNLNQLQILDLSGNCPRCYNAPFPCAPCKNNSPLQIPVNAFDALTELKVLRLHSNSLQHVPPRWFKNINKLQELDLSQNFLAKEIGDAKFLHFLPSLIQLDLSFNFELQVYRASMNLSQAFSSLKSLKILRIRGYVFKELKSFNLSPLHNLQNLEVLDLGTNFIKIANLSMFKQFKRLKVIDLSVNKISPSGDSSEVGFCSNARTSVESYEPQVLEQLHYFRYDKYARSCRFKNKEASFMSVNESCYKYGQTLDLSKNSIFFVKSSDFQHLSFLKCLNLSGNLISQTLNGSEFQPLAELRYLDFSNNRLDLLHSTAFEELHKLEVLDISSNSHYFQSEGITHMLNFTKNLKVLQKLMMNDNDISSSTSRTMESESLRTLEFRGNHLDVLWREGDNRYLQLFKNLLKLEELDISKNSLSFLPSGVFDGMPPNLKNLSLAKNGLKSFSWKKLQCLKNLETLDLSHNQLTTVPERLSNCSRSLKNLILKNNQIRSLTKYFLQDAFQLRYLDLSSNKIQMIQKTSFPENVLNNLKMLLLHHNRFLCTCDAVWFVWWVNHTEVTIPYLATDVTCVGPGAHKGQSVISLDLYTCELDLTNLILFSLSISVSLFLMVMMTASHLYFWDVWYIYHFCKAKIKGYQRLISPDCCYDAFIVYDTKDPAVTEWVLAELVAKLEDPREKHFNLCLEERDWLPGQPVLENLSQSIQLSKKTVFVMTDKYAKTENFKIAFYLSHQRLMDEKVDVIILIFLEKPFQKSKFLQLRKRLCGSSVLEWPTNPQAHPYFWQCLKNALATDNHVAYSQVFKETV
Method: (§1) HEK blue hTLR7 or hTLR8 reporter cells (Invivogen) were cultivated in DMEM High Glucose (Biowest) according to the manufacturer’s instructions. Cells were treated with test compounds and controls at various concentrations in serum-free DMEM and incubated at 37°C, 5% CO2 for 24 h before supernatants were collected.
(§2) Relative secreted embryonic alkaline phosphatase (SEAP) activity in the supernatants was determined by quantification of para-Nitrophenyl Phosphate (pNPP)-turnover. Supernatants were diluted 10-fold in a solution containing 1 mM MgCl2, 1 M diethanolamine and 1 mg/mL pNPP and incubated at RT for 15 min before the reaction was stopped by the addition of 0.25 volumes of 1 M NaOH. Absorbance was measured at 405 nm on a Versamax microplate reader (Molecular Devices) and normalized to the mean of >5 solvent controls.
(§3) To obtain reliable estimates, replicate measurements of a minimum of 2 experiments were normalized to the maximal SEAP activity of a compound in a given experiment and pooled before fitting a non-linear function to the data.

[2] = molecular target: T2, human TLR8 (Homo sapiens, UniProt Q9NR97); test: HEK-Blue hTLR8 SEAP reporter assay; type: cell-based; details: for TLR8 activity rel. to assay max: average maximal SEAP secretion relative to maximum secretion observed in the assay; for SEAP secretion from HEK-Blue hTLR-8: in words
T2 construct: host or cells: HEK blue hTLR8 reporter cells
T2 sequence (Q9NR97 27-1041): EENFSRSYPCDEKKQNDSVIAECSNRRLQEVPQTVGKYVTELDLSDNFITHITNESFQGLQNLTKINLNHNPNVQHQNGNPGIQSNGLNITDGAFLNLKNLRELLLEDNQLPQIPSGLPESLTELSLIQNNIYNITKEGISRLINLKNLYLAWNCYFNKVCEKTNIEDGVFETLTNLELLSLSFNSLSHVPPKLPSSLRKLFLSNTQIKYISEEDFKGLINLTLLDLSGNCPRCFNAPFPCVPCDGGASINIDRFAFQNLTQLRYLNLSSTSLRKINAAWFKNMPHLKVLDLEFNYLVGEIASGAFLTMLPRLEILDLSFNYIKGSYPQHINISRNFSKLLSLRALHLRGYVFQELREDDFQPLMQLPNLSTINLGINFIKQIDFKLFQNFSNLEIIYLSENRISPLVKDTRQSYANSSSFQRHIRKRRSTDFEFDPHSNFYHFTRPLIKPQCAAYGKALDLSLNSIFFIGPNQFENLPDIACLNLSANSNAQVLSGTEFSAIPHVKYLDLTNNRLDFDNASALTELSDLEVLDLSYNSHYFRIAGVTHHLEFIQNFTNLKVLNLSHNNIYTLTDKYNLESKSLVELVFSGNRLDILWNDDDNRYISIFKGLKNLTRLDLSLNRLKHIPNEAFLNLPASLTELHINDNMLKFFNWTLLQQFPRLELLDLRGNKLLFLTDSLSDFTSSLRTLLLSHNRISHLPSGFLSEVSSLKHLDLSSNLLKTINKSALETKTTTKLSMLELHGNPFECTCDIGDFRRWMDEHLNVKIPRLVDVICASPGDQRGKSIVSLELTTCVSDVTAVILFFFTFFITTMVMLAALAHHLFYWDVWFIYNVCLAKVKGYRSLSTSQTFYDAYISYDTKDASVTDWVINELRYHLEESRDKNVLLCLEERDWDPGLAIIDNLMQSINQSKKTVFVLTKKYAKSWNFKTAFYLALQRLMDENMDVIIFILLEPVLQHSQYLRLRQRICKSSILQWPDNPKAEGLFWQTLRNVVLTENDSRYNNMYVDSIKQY
Method: as §1, §2, §3

[3] = tested on: PMA-differentiated U937; test: MTT viability assay in PMA-differentiated U937; type: cell-based; details: 25 µM; PMA-differentiated U937, 2 days
[4] = tested on: undifferentiated U937; test: Helix NIR dye exclusion in undifferentiated U937; type: cell-based; details: 25 µM; in words
Method: Exclusion of Helix NIR (BioLegend) was used to assay membrane integrity following compound treatment. Culture conditions for U937 were as described above, undifferentiated cells were incubated with varying concentrations of compound or with solvent. Helix NIR was added to the cells to a final concentration of 10 nM, cells were incubated at RT for 10 min and acquired on a ZE5 Cell Analyzer (Bio-Rad). The cutoff for positive staining was set to approximately the 99th percentile of unstained cells.

[5] = Compound concentrations in organs and plasma after three consecutive daily s.c. treatments (Figure 6B, S7); type: in vivo, mice; details: for compound plasma level at peak: s.c.; for concentration at 4 h / concentration at 28 h / concentration at 52 h: mouse, sc, repeated daily s.c. treatment; for concentration at 4 h: after 4 h; for concentration at 28 h: after 28 h; for concentration at 52 h: after 52 h
Method: All samples were extracted with 3 or 6 volumes acetonitrile containing terbuthylazine as an internal standard (ACN) relative to either sample weight or volume. Liquid samples (plasma, culture medium, cell suspensions in stability experiments) were diluted in either 3 (culture medium, cell suspensions) or 6 (plasma) volumes ACN, pellet and blood samples were extracted by addition of ACN followed by sonication for 5 min. Organ samples were digested with 0.5 µg/mg Proteinase K (Genaxxon) for 1 h at 50°C before being homogenized using a Fastprep FP-24 5G instrument (MP-Biomedicals). Homogenates were diluted with 6 volumes ACN and homogenized again. All extracts were cleared by centrifugation at ~20.000xg for 10 min at 4°C.
Quantification of analytes was performed on an Agilent 1260/1290 Infinity system fitted with an Agilent C18 Poroshell 120 column (4.6 x 50 mm, 2.7 µm) coupled to a triple quadrupole Sciex API 4000 MS/MS detector. The mobile phase was composed of water containing 0.1% formic acid (eluent A) and acetonitrile containing 0.1% formic acid (eluent B). Gradient used was: 5% B for 0.5 min, to 100% B in 4.5 min, 100% B for 2 min, to 5% B in 0.5 min, 5% for 2.5 min. MS detection parameters are listed in SI Table S1 .
Formulation. Test compounds were prepared for application in either 1% Tween 80, 9% PEG400 in ultrapure water (Biowest) (i.v., i.p., p.o. application) or 5 mM citric acid in 0.9% saline (Braun) (subcutaneous application). If compounds were administered subcutaneously, injections were carried out into the neck crease.
Collection of Samples. Mice were bled from the tail vein at various timepoints. Heparin (Sigma) or K2-EDTA (Sigma) was added to blood samples to a final […] concentration of 10-15 Unit or 5 mM. Plasma was generated by centrifugation at 6800xg for 8 min at 4°C and stored at -80°C until analyzed by ELISA or CBA. Animals were sacrificed after the indicated time points by CO2 inhalation. Heart blood and organs for compound quantification by HPLC-MS/MS were collected post mortem and stored at –20°C until extracted as described above.
Dotted lines indicate the time of repeated compound applications. (A) Cytokine levels in pooled tail plasma of mice from individual treatment groups (n=3 per pool and time point), error bars represent range of two replicate measurements. (B) Peripheral blood was collected from the tail vein before, 15, 30 60, 120, 240, 360 and 480 min after s.c. treatment. Compound concentration in peripheral plasma was analyzed by HPLC-MS/MS, data presented as mean ± SD.
Samples were collected 4 h, 28 h and 52 h after s.c. treatment. Skin samples were sampled
at time points 4 h and 52 h. Compound concentrations were analyzed by HPLC-MS/MS, data

[6] = 95% CI, HEK-blue human TLR7, 24 h, read-out: TLR7 EC50
[7] = Figure S3, axis c/[µM], pooled from 3 experiments, read-out: compound-specific EC50 in dose response plot, HEK Blue hTLR7
[8] = 95% CI, HEK-blue human TLR8, 24 h, read-out: TLR8 EC50
[9] = Figure S4, axis c/[µM], pooled from 3 experiments, read-out: compound-specific EC50 in dose response plot, HEK Blue hTLR8
[10] = brain, read-out: concentration in brain
[11] = liver, read-out: concentration in liver

Structure (SMILES)	Average maximal activity in HEK-Blue hTLR7 relative to RSQ [1] [%]	EC50 [1, 6] [µM]	EC50 [1, 7] [µM]	TLR7 activity rel. to assay max [1]	maximal induction in HEK-Blue hTLR-8 (lower than that of RSQ) [2] [%]	EC50 [2, 8] [µM]	EC50 [2, 9] [µM]	TLR8 activity rel. to assay max [2]	SEAP secretion from HEK-Blue hTLR-8 [2]	effect on membrane integrity, dye exclusion assay in U937 [4]	compound plasma level at peak ([5]; day 1, 60 min after application) [nM]	compound plasma level at peak ([5]; day 2, 60 min after application) [nM]	compound plasma level at peak ([5]; day 3, 60 min after application) [nM]	concentration at 4 h [5, 10] [nM]	concentration at 28 h [5, 10] [nM]	concentration at 52 h [5, 10] [nM]	concentration at 4 h [5, 11] [nM]	concentration at 28 h [5, 11] [nM]	concentration at 52 h [5, 11] [nM]	MTT U937, percent MTT conversion relative to solvent controls [3] [%]
CCCCc1nc2c(N)nc3ccccc3c2n1CC1CCN(C(=O)OC(C)(C)C)CC1 [A2-boc]	86	0.23 to 0.47	–	86% ± 9%	–	–	–	4% ± 1%	close to baseline	–	–	–	–	–	–	–	–	–	–	–
CCCCc1nc2c(N)nc3ccccc3c2n1CCC1CCN(C(=O)OC(C)(C)C)CC1 [A1-boc]	55	0.39 to 0.69	0.527	55% ± 7%	–	–	–	4% ± 2%	close to baseline	negative effects on membrane integrity	–	–	–	–	–	–	–	–	–	50
CC(C)Cn1cnc2c(N)nc3ccccc3c21 [IMQ, Imiquimod]	–	5.2 to 8.3	6.52	35% ± 7%	–	–	–	–	–	–	796	606	608	32	135	177	630	824	645	–

Continued, in another order:

Average maximal activity in HEK-Blue hTLR7 relative to RSQ [1] [%]	EC50 [1, 6] [µM]	EC50 [1, 7] [µM]	TLR7 activity rel. to assay max [1]	maximal induction in HEK-Blue hTLR-8 (lower than that of RSQ) [2] [%]	EC50 [2, 8] [µM]	EC50 [2, 9] [µM]	TLR8 activity rel. to assay max [2]	SEAP secretion from HEK-Blue hTLR-8 [2]	effect on membrane integrity, dye exclusion assay in U937 [4]	compound plasma level at peak ([5]; day 1, 60 min after application) [nM]	compound plasma level at peak ([5]; day 2, 60 min after application) [nM]	compound plasma level at peak ([5]; day 3, 60 min after application) [nM]	concentration at 4 h [5, 10] [nM]	concentration at 28 h [5, 10] [nM]	concentration at 52 h [5, 10] [nM]	concentration at 4 h [5, 11] [nM]	concentration at 28 h [5, 11] [nM]	concentration at 52 h [5, 11] [nM]	Structure (SMILES)	MTT U937, percent MTT conversion relative to solvent controls [3] [%]
81	0.075 to 0.12	0.0957	81% ± 13%	57	2.8 to 3.1	2.96	57% ± 9%	–	–	–	–	–	–	–	–	–	–	–	CCCCc1nc2c(N)nc3ccccc3c2n1CC1CCNCC1 [A2]	–
–	1.5 to 2.1	1.76	84% ± 5%	18	11 to 13	12.1	18% ± 8%	–	–	–	–	–	–	–	–	–	–	–	CCCCc1nc2c(N)nc3ccccc3c2n1CCOCCOCCO [A4]	–
–	1 to 1.5	1.24	62% ± 9%	36	8.2 to 8.5	8.36	36% ± 4%	–	–	–	–	–	–	–	–	–	–	–	CCCCc1nc2c(N)nc3ccccc3c2n1CCOCCOCCN [A3]	–
